Assay results as given in paper PMC6934184, “Selective DNA-PKcs inhibition extends the therapeutic index of localized radiotherapy and chemotherapy” (The Journal of Clinical Investigation, 2019).

Target: T1, FGFR3 K650E (Homo sapiens, UniProt P22607, K650E)
T1 construct: purchased Thermo Fisher Scientific (Life Technologies) SelectScreen
Experiment: SelectScreen Z'LYTE
Assay type: biochemical
Procedure, shortened: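 SelectScreen broad panel; activity (Z'LYTE, Adapta) plus binding formats. ATP: Km app for CSF1R Z'LYTE; 10 for CAMK1 Adapta. Readout = % per kinase.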

T1 sequence (P22607 23-806 K650E): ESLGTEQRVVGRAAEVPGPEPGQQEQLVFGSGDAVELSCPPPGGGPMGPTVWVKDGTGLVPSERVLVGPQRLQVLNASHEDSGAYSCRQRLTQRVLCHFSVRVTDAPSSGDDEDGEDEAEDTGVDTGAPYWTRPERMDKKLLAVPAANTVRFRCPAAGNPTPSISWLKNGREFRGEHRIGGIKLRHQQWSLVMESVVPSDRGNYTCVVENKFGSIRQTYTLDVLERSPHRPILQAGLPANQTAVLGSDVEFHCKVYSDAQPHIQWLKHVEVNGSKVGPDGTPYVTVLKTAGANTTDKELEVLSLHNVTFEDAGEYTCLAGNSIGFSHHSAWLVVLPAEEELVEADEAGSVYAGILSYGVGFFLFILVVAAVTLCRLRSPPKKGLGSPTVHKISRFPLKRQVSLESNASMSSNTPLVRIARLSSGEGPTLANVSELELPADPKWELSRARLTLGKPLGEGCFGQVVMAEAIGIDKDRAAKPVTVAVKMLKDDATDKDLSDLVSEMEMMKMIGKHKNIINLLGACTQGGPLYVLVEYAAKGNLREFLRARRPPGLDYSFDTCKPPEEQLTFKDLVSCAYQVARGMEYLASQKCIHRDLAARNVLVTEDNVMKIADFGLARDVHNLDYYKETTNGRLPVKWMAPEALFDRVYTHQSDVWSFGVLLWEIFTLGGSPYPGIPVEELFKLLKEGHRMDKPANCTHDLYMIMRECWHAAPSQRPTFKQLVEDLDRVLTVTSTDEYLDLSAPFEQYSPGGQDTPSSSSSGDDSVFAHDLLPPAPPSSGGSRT

With `CN(C(=O)CN1CCOCC1)c1ccc2sc3c(-c4cccc5c(=O)cc(N6CC7CCC(C6)O7)oc45)cccc3c2c1` [NU5455] the inhibition at 1 µM was 7.9%.
